Measurements from ChEMBL document CHEMBL1201862, “PubChem BioAssay data set” (2004).
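Growth conditions: 96-well plates. Treatment: test compound, 48 hours, 5 concentrations. Analysis: linear interpolation between bracketing concentrations; unreached endpoints set to highest concentration. GI50 is the concentration that inhibits growth by half.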 The source made the active and inactive calls. No stated cut-off is given here; in the data, active = GI50 up to about 1.1 µM and inactive = higher.

Assays:
Experiment in all cases: DTP human tumour cell line panel, 48 h
UO-31 = test system: UO-31
CCRF-CEM = test system: CCRF-CEM
RXF 393 = test system: RXF 393
HL-60 = test system: HL-60
SK-MEL-28 = test system: SK-MEL-28
HOP-92 = test system: HOP-92
HT-29 = test system: HT-29
SW-620 = test system: SW-620
RPMI-8226 = test system: RPMI-8226
SN12C = test system: SN12C
OVCAR-3 = test system: OVCAR-3
LXFL 529 = test system: LXFL 529
OVCAR-4 = test system: OVCAR-4
U-251 = test system: U-251
EKVX = test system: EKVX
SF-539 = test system: SF-539
OVCAR-5 = test system: OVCAR-5
SNB-75 = test system: SNB-75

Compound | GI50 (UO-31) | GI50 (CCRF-CEM) | GI50 (RXF 393) | GI50 (HL-60) | GI50 (SK-MEL-28) | GI50 (HOP-92) | GI50 (HT-29) | GI50 (SW-620) | GI50 (RPMI-8226) | GI50 (SN12C) | GI50 (OVCAR-3) | GI50 (LXFL 529) | GI50 (OVCAR-4) | GI50 (U-251) | GI50 (EKVX) | GI50 (SF-539) | GI50 (OVCAR-5) | GI50 (SNB-75)
CCCCCCCCCCCCCCCc1nnc(SCC(=O)O)[nH]1 | 49.9 µM (inactive) | 24.2 µM (inactive) | > 100 µM (inactive) | 34.8 µM (inactive) | 80.7 µM (inactive) | 32.1 µM (inactive) | 31.7 µM (inactive) | 95.5 µM (inactive) | 78.2 µM (inactive) | 71.9 µM (inactive) | > 100 µM (inactive) | 22.8 µM (inactive) | 45.7 µM (inactive) | 26.4 µM (inactive) | > 100 µM (inactive) | 48 µM (inactive) |  | 
Cc1cc2c3c(coc3c1-c1c(C)cc3c4c(coc14)C(=O)C(O)=C3C(C)C)C(=O)C(O)=C2C(C)C | 16.6 µM (inactive) | 3.58 µM (inactive) | 10.3 µM (inactive) | 3.42 µM (inactive) | 10.1 µM (inactive) | 2.62 µM (inactive) | 3.94 µM (inactive) | 5.2 µM (inactive) | 4.68 µM (inactive) | 10.1 µM (inactive) | 5.45 µM (inactive) | 3.77 µM (inactive) | 6.79 µM (inactive) | 3.66 µM (inactive) | 2.28 µM (inactive) | 3.44 µM (inactive) | 17.9 µM (inactive) | 10.9 µM (inactive)
CC(C)C(=O)/C=C/c1ccc(Cl)cc1 | 12.2 µM (inactive) | 4.19 µM (inactive) | 17.6 µM (inactive) | 8.22 µM (inactive) | > 10 µM (inactive) | 16.7 µM (inactive) | 14.1 µM (inactive) | 3.99 µM (inactive) | 5.37 µM (inactive) | 7.73 µM (inactive) | 14.4 µM (inactive) | 14.9 µM (inactive) | 12.9 µM (inactive) | 12.9 µM (inactive) |  | 10.4 µM (inactive) | 20.2 µM (inactive) | 15.8 µM (inactive)
COc1cc2c(cc1O)C=NCC2 | > 100 µM (inactive) | 50 µM (inactive) |  | > 100 µM (inactive) | > 100 µM (inactive) | > 100 µM (inactive) |  | > 100 µM (inactive) | > 100 µM (inactive) | > 100 µM (inactive) | 78.5 µM (inactive) | > 100 µM (inactive) | > 100 µM (inactive) | > 100 µM (inactive) | > 100 µM (inactive) | > 100 µM (inactive) | > 100 µM (inactive) | > 100 µM (inactive)
CCSC(SCC)=C1C(=O)N(c2ccccc2)N=C1C | 15.6 µM (inactive) | 2.92 µM (inactive) | 1.95 µM (inactive) | 2.33 µM (inactive) | 12.9 µM (inactive) | 6.38 µM (inactive) | 19.1 µM (inactive) | 7.66 µM (inactive) | 7.67 µM (inactive) | 16.1 µM (inactive) | 4.67 µM (inactive) | 10 µM (inactive) |  |  | 13.7 µM (inactive) |  | 15.9 µM (inactive) | 20.6 µM (inactive)
COc1cc(C2c3cc4c(cc3[C@@H](N(C)c3ccc(N(C)C)cc3)C3COC(=O)C23)OCO4)cc(OC)c1O (some centres not stated) | 0.964 µM (active) | 0.343 µM (active) |  | 0.362 µM (active) | 1.25 µM (inactive) | 1.99 µM (inactive) | 0.269 µM (active) | 0.184 µM (active) | 0.923 µM (active) | 0.59 µM (active) | 0.213 µM (active) | 0.312 µM (active) | 9.57 µM (inactive) | 0.219 µM (active) | 15.8 µM (inactive) | 0.255 µM (active) | 3.42 µM (inactive) | 4.34 µM (inactive)
O=C(c1cccs1)N(C(=S)N1CCN(c2ccccn2)CC1)C1CCCCC1 | 44.4 µM (inactive) | 81.1 µM (inactive) | 22.5 µM (inactive) | > 100 µM (inactive) | > 100 µM (inactive) | 66.2 µM (inactive) | 52 µM (inactive) | > 100 µM (inactive) | 43.1 µM (inactive) | > 100 µM (inactive) | 57.3 µM (inactive) | 58.6 µM (inactive) | > 100 µM (inactive) | 79.1 µM (inactive) |  | > 100 µM (inactive) | > 100 µM (inactive) | > 100 µM (inactive)
CC1(C)C(=O)C(C)(C)C1=NN | > 100 µM (inactive) |  | > 100 µM (inactive) | > 100 µM (inactive) | > 100 µM (inactive) | > 100 µM (inactive) | > 100 µM (inactive) | > 100 µM (inactive) | > 100 µM (inactive) | > 100 µM (inactive) | > 100 µM (inactive) | > 100 µM (inactive) | > 100 µM (inactive) | > 100 µM (inactive) |  | > 100 µM (inactive) | > 100 µM (inactive) | > 100 µM (inactive)
Cc1cc(C=O)c2c(=O)c3c(O)ccc(/C=C/C(C)C)c3oc2c1 | > 100 µM (inactive) | > 10 µM (inactive) |  | 28.3 µM (inactive) | 37.9 µM (inactive) | 68.9 µM (inactive) | > 100 µM (inactive) | 28.1 µM (inactive) | 23.1 µM (inactive) |  | 43.2 µM (inactive) | 43.4 µM (inactive) | 31.4 µM (inactive) | 41.1 µM (inactive) |  | > 100 µM (inactive) | > 100 µM (inactive) | 95.1 µM (inactive)
Cc1ccc(NC(=O)CC/C(CC(=O)c2ccc(Cl)cc2)=N\NC(=O)C(=O)NN)cc1C | > 100 µM (inactive) | > 100 µM (inactive) | > 100 µM (inactive) | > 100 µM (inactive) | > 100 µM (inactive) |  | > 100 µM (inactive) | > 100 µM (inactive) | > 100 µM (inactive) | > 100 µM (inactive) | > 100 µM (inactive) | > 100 µM (inactive) | > 100 µM (inactive) | > 100 µM (inactive) | > 100 µM (inactive) | > 100 µM (inactive) | > 100 µM (inactive) | > 100 µM (inactive)
N#C/C(=C(/S)Nc1ccccc1)c1nc2ccccc2[nH]1 | > 10 µM (inactive) | > 10 µM (inactive) |  | > 10 µM (inactive) | > 10 µM (inactive) | > 10 µM (inactive) |  | > 10 µM (inactive) | > 10 µM (inactive) | > 10 µM (inactive) | > 10 µM (inactive) | > 10 µM (inactive) | > 10 µM (inactive) | > 10 µM (inactive) | > 10 µM (inactive) | > 10 µM (inactive) | > 10 µM (inactive) | > 10 µM (inactive)
CCN(c1ccccc1)[C@H]1C(=O)N(c2ccc([N+](=O)[O-])cc2)[C@H]1c1ccc(OC)cc1 | > 100 µM (inactive) | 39.1 µM (inactive) | 37.6 µM (inactive) | 75.3 µM (inactive) | > 100 µM (inactive) | 15.8 µM (inactive) | > 100 µM (inactive) | > 100 µM (inactive) | > 100 µM (inactive) | 98.6 µM (inactive) | > 100 µM (inactive) | > 100 µM (inactive) |  | > 100 µM (inactive) | > 100 µM (inactive) | 35.2 µM (inactive) | > 100 µM (inactive) | 46.9 µM (inactive)
COC(=O)Cc1c([C@@]2(C)CCCC(C)(C)C2)ccc2c1C(=O)OC2 | 3.58 µM (inactive) | 6.49 µM (inactive) | 10.4 µM (inactive) | 3.42 µM (inactive) | 13.1 µM (inactive) | 3.01 µM (inactive) | 10.8 µM (inactive) | 18.9 µM (inactive) | 2.7 µM (inactive) | 10.1 µM (inactive) | 5.25 µM (inactive) | 7.29 µM (inactive) |  | 13.3 µM (inactive) | 18.1 µM (inactive) | 15.6 µM (inactive) |  | 14.3 µM (inactive)
CC(=O)C1Cn2c(=O)c3cc4ccccc4cc3c(=O)n2C=C1C (configuration not stated) | > 100 µM (inactive) | > 100 µM (inactive) | > 100 µM (inactive) | > 100 µM (inactive) | > 100 µM (inactive) | 61.2 µM (inactive) |  | > 100 µM (inactive) | > 100 µM (inactive) | > 100 µM (inactive) | > 100 µM (inactive) | 83.4 µM (inactive) | > 100 µM (inactive) | > 100 µM (inactive) | > 100 µM (inactive) | > 100 µM (inactive) | > 100 µM (inactive) | 67.8 µM (inactive)
COc1ccc(C[C@]23CCC(=O)N2CCc2cc(OC)c(O)cc23)cc1O | > 100 µM (inactive) | > 100 µM (inactive) | > 100 µM (inactive) | > 100 µM (inactive) | > 100 µM (inactive) | > 100 µM (inactive) | > 100 µM (inactive) | > 100 µM (inactive) | > 100 µM (inactive) | > 100 µM (inactive) | > 100 µM (inactive) | > 100 µM (inactive) | > 100 µM (inactive) |  | > 100 µM (inactive) | > 100 µM (inactive) | > 100 µM (inactive) | > 100 µM (inactive)
COc1ccc(CNc2cc(OC)cc(OC)c2)cc1 | 29.7 µM (inactive) |  | 43.8 µM (inactive) | > 39.2 µM (inactive) | 51.5 µM (inactive) | 58.9 µM (inactive) |  | > 100 µM (inactive) | > 49.7 µM (inactive) |  | 50.8 µM (inactive) | 49.3 µM (inactive) | 68.9 µM (inactive) | > 88.5 µM (inactive) | 60.8 µM (inactive) |  |  | 35.3 µM (inactive)
NC1=NN(c2ccccc2)C(=O)C1/C(=N\NC(=O)c1cc2ccccc2cc1O)C(=O)Nc1cccc(C(F)(F)F)c1 (configuration not stated) | 32.8 µM (inactive) | 7.06 µM (inactive) | 55.1 µM (inactive) | 6.65 µM (inactive) | 57.7 µM (inactive) | 33.2 µM (inactive) | 41 µM (inactive) | 34.7 µM (inactive) | 39.7 µM (inactive) | 46.6 µM (inactive) | 25.7 µM (inactive) | 39.3 µM (inactive) | 42.5 µM (inactive) | 37.7 µM (inactive) | 35.6 µM (inactive) |  | 26.2 µM (inactive) | > 100 µM (inactive)
